Consider three compounds from US6835724B2, “Corticoid 17,21-dicarboxylic esters and corticosteroid 17-carboxylic ester 21-carbonic esters, processes for their preparation and pharmaceuticals containing these compounds” (Aventis Pharma Deutschland GmbH, priority 1993, dated 2004).

In one data set the test system is rat croton oil ear edema. Briefly: Local antiinflammatory effect in rat croton oil ear edema following epicutaneous application. Type of data set: in vivo. The settings on record: for Inhibition in % / x ± s (mg), weight difference of treated and untreated ear disks: 4 h; for x ± s (mg), weight difference of treated and untreated ear disks: TPA irritant, control 21.2 ± 5.1; for local antiinflammatory effect: summary in words. Here is the method:
1. Local antiinflammatory effect in rat croton oil ear edema following epicutaneous application […] The left ear remained untreated. […] The corticoids under examination were dissolved in this solution in the given final concentrations. Controls only received the TPA/solvent mixture. The animals were sacrificed using CO2 4 h after the epicutaneous treatment. Disks measuring 8 mm in diameter were punched out of the right (treated) and the left (untreated) ears and weighed immediately.

A further data set has as its system Carrageenan paw edema. The data set can be described thus: Systemic antiinflammatory effect following subcutaneous administration: Carrageenan paw edema in rats. It counts as in vivo, rat. Particulars: for Increase in volume: 6 hours after carrageenan, control 0.58 ± 0.16; for systemic activity: summary in words. The source says: 2 a) Examining for systemic antiinflammatory effect in the “antiinflammatory effect following subcutaneous administration: Carrageenan paw edema in rats” test. The carrageenan paw edema test in rats in accordance with the method described by Winter et al., Proc. Soc. exp. Biol. (New York) 111, 544 (1962) was chosen as the test for the acute systemic antiinflammatory effect. […] Controls were only given sesame oil. The paw volumes are given in ml, x±s.
(The carrageenan paw model is a standard test of acute inflammation.)

Another data set has as its system gluconeogenesis. Briefly: Systemic effect: gluconeogenesis in adrenalectomized rats. The settings on record: for Glycogen + glucose mg/100 g of liver: 6 hours, control 11.2 ± 1.7; for effect on new formation of glucose and glycogen: t test against control.

Method for gluconeogenesis: 2 b) Examining for systemic effect: gluconeogenesis in rats
A sensitive method for detecting systemic effects on carbohydrate metabolism is to examine the gluconeogenic effect of corticosteroids in the adrenalectomized rat.
Three days prior to the experiment, groups of in each case 6 rats are adrenalectomized under pentobarbital anesthesia and provided with 0.9% sodium chloride solution as drinking fluid. Two days later, i.e. 24 hours before initiating the experiment, the feed is removed in order to reduce the glycogen stores in the liver.
On the day of the experiment, the preparations under examination are administered subcutaneously, dissolved in sesame oil (2 ml/kg). Six hours later, the animals are decapitated, and in each case the liver is removed and 1 g thereof is taken up in 5 ml of 0.6 molar perchloric acid. After homogenization, the free glucose is measured in the supernatant from the centrifugation, while the centrifugation sediment (centrifugate; glycogen) is cleaved enzymically with amyloglucosidase, after which the glucose content is also measured in this fraction (Hexokinase method, Boehringer Mannheim).

`C[C@]12C=CC(=O)C=C1CC[C@@H]1[C@@H]2[C@@H](O)C[C@@]2(C)[C@H]1CC[C@]2(OC(=O)c1ccccc1)C(=O)COC(=O)Cc1ccccc1` [Compound I, prednisolone 17-benzoate 21-phenylacetic ester]: the Inhibition in % in the data set on rat croton oil ear edema (0.1 mg/ml epicutaneous) is reported as 76%; in the data set with rat croton oil ear edema (0.3 mg/ml epicutaneous), 85%; in the data set with rat croton oil ear edema (1.0 mg/ml epicutaneous), 91%. Further, the “x ± s (mg), weight difference of treated and untreated ear disks” value (shortened to “x ± s (mg), weight difference”) in the data set with rat croton oil ear edema (0.1 mg/ml epicutaneous) is listed as 5.0 ± 3.1 mg; in the data set on rat croton oil ear edema (0.3 mg/ml epicutaneous), 3.1 ± 2.5 mg; with rat croton oil ear edema (1.0 mg/ml epicutaneous), 2.0 ± 1.4 mg. The local antiinflammatory effect result with rat croton oil ear edema is on record as “strong”. Also, the “Increase in volume” value with Carrageenan paw edema (0.3 mg/kg s.c.) was 0.46 ± 0.19 mL; in the data set on Carrageenan paw edema (3.0 mg/kg s.c.) it was 0.38 ± 0.15 mL. For the same compound, the systemic activity entry in the data set on Carrageenan paw edema is “weak”. The “Glycogen + glucose mg/100 g of liver” value is listed as 20.4 ± 11.7 n.s. mg/100 g of liver with gluconeogenesis (0.3 mg/kg s.c.) and 96.0 ± 26.2 mg/100 g of liver with gluconeogenesis (3.0 mg/kg s.c.). In addition, the “effect on new formation of glucose and glycogen” value in the data set with gluconeogenesis (0.3 mg/kg s.c.) is listed as “still do not have any significant effect”.

`C[C@H]1C[C@H]2[C@@H]3CCC4=CC(=O)C=C[C@]4(C)[C@@]3(F)[C@@H](O)C[C@]2(C)[C@@]1(OC(=O)c1ccccc1)C(=O)COC(=O)Cc1ccccc1` [Compound II, betamethasone 17-benzoate 21-phenylacetic ester]: the Inhibition in % worked out at 67% in the data set with rat croton oil ear edema (0.1 mg/ml epicutaneous), 77% in the data set on rat croton oil ear edema (0.3 mg/ml epicutaneous) and 95% with rat croton oil ear edema (1.0 mg/ml epicutaneous). The results for the “x ± s (mg), weight difference” value in the data set on rat croton oil ear edema (0.1 mg/ml epicutaneous), in the data set with rat croton oil ear edema (0.3 mg/ml epicutaneous) and in the data set on rat croton oil ear edema (1.0 mg/ml epicutaneous) were 7.0 ± 3.3 mg, 4.9 ± 3.3 mg and 1.1 ± 0.9 mg, respectively. The local antiinflammatory effect entry in the data set with rat croton oil ear edema is “strong”. The “Increase in volume” value is 0.56 ± 0.09 mL in the data set on Carrageenan paw edema (0.3 mg/kg s.c.) and 0.45 ± 0.14 mL with Carrageenan paw edema (3.0 mg/kg s.c.). In the data set on Carrageenan paw edema, the systemic activity entry is “weak”. The results for the “Glycogen + glucose mg/100 g of liver” value with gluconeogenesis (0.3 mg/kg s.c.) and with gluconeogenesis (3.0 mg/kg s.c.) were 10.8 ± 1.3 n.s. mg/100 g of liver and 81.2 ± 61.7 mg/100 g of liver, respectively. Also, the “effect on new formation of glucose and glycogen” value with gluconeogenesis (0.3 mg/kg s.c.) is recorded as “still do not have any significant effect”.

As to `CCOC(=O)O[C@]1(C(=O)COC(=O)CC)CC[C@H]2[C@@H]3CCC4=CC(=O)C=C[C@]4(C)[C@H]3[C@@H](O)C[C@@]21C` [Prednicarbate, prednisolone 17-ethyl carbonate 21-propionate, reference compound], the Inhibition in % in the data set with rat croton oil ear edema (0.1 mg/ml epicutaneous) was 75%; in the data set on rat croton oil ear edema (0.3 mg/ml epicutaneous), 88%. The entries for the “x ± s (mg), weight difference” value in the data set on rat croton oil ear edema (0.1 mg/ml epicutaneous) and in the data set with rat croton oil ear edema (0.3 mg/ml epicutaneous) were 5.2 ± 3.3 mg and 2.6 ± 2.4 mg, respectively. In addition, the “Increase in volume” value was 0.36 ± 0.13 mL in the data set on Carrageenan paw edema (0.3 mg/kg s.c.) and 0.09 ± 0.08 mL with Carrageenan paw edema (3.0 mg/kg s.c.).
